Data published in ChEMBL document CHEMBL1201862, “PubChem BioAssay data set” (2004).
The source made the active and inactive calls.

How the values were obtained:
[1] = molecular target: T1, Alkaline phosphatase, tissue-nonspecific isozyme (Homo sapiens, UniProt P05186); test: potency against alkaline phosphatase TNAP – biochemical, luminescent, dose response, SAR follow-up (AID 1056)
T1 sequence (P05186 whole entry): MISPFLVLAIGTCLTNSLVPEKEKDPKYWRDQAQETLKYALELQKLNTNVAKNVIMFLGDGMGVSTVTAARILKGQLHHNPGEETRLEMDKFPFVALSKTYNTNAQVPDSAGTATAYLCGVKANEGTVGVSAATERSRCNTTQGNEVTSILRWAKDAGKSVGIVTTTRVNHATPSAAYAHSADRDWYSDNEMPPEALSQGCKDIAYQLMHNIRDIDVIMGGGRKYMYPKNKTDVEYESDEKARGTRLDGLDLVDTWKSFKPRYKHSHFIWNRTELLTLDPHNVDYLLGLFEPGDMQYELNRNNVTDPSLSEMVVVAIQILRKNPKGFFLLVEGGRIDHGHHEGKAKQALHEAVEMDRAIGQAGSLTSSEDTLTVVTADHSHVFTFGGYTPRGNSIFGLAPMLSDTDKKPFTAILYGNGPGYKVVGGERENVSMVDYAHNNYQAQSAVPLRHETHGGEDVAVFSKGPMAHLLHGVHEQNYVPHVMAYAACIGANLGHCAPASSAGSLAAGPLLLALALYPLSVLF

[2] = molecular target: Glyceraldehyde-3-phosphate dehydrogenase (Homo sapiens, UniProt P04406)
Sequence of Glyceraldehyde-3-phosphate dehydrogenase (P04406 whole entry): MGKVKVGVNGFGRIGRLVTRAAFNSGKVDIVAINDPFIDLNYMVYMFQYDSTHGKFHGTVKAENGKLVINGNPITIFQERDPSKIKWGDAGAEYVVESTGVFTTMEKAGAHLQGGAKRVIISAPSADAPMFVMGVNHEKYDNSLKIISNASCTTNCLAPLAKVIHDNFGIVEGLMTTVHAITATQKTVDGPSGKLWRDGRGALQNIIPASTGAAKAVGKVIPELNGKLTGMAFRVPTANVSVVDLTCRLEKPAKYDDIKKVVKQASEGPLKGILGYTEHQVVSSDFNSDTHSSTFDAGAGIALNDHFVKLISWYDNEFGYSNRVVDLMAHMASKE

[3] = molecular target: T2, Microphthalmia-associated transcription factor (Homo sapiens, UniProt O75030); test: reducers of TRPM1 reporter luminescence, concentration series – cell-based, SK-MEL-5, cherry-picked, set 3, MITF inhibitor project, dose response (AID 493073); assay type: functional;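 note: SK-MEL-5 melanoma cells with luciferase driven by the MITF target TRPM1 promoter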
T2 sequence (O75030 whole entry): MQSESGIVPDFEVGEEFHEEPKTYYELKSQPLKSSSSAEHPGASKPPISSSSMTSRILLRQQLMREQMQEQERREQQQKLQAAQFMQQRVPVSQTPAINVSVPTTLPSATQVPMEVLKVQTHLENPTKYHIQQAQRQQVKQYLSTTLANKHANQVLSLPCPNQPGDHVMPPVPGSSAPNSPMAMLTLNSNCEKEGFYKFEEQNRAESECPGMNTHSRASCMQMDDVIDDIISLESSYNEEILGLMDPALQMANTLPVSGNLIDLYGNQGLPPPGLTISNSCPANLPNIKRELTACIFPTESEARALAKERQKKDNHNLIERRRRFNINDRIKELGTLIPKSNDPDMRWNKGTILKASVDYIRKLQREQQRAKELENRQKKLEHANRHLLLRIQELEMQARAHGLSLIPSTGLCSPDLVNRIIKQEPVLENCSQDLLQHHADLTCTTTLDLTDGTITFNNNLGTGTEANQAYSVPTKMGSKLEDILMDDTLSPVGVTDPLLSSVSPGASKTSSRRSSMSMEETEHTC

[4] = molecular target: T3, Ubiquitin-conjugating enzyme E2 N (Homo sapiens, UniProt P61088); assay type: functional;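 note: Dose-response confirmation in a TR-FRET assay detecting UBC13-driven polyubiquitin chain formation, inhibition measured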
T3 sequence (P61088 whole entry): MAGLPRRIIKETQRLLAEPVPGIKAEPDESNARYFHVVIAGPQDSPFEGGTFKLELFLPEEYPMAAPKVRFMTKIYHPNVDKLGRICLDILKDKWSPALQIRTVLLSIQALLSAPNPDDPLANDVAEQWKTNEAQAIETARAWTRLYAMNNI

[5] = molecular target: Disintegrin and metalloproteinase domain-containing protein 17 (Homo sapiens, UniProt P78536); test: inhibition of ADAM17 substrate cleavage – biochemical, quenched FRET substrate, counter-screen for ADAM10 exosite inhibitor project, dose response (AID 743253)
Sequence of Disintegrin and metalloproteinase domain-containing protein 17 (P78536 whole entry, the tested form may be a part): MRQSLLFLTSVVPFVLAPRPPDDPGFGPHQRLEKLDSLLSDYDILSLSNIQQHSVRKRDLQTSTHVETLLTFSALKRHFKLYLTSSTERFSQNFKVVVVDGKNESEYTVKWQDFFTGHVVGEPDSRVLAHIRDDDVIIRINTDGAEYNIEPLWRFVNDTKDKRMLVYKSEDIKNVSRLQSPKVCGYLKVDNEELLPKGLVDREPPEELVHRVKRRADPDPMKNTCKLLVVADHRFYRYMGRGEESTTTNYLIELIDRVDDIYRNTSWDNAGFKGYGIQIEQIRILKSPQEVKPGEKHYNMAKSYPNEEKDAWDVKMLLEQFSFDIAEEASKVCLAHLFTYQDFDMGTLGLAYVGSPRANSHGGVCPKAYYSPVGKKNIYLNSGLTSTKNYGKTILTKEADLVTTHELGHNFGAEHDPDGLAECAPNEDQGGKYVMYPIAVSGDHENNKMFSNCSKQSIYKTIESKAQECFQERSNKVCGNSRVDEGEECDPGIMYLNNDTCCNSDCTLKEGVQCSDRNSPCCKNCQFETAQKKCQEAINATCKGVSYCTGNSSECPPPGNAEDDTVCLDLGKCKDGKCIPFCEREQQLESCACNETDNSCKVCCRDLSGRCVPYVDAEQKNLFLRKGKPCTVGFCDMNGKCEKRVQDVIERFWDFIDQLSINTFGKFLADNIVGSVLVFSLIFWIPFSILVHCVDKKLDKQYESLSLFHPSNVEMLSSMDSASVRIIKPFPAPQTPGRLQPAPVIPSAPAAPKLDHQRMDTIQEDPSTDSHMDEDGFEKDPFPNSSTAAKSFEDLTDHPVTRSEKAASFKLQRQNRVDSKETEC

[6] = test system: Streptococcus sp. 'group A'; test: Streptococcus pyogenes SK(-)GAS viability under kanamycin – luminescence, BacTiterGlo, confirmation, counter-screen for streptokinase expression inhibitor project, dose response (AID 1900); assay type: functional, organism-based
Streptococcus = test: GAS UMAA2166 growth inhibition – luminescence, BacTiterGlo, counter-screen for streptokinase expression inhibitor project, dose response (AID 1915); assay type: functional, organism-based;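 note: potency for reduction of bacterial viability or growth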
Streptokinase A = molecular target: T4, Streptokinase A (Streptococcus pyogenes serotype M1, UniProt P10520); test: viability-normalized secreted streptokinase activity reduction – plasminogen activation absorbance, OD405, dose response (AID 1914); assay type: functional, Streptococcus pyogenes M1 GAS;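 note: secreted streptokinase activity via plasminogen activation per viability signal from cell pellet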
T4 sequence (P10520 whole entry): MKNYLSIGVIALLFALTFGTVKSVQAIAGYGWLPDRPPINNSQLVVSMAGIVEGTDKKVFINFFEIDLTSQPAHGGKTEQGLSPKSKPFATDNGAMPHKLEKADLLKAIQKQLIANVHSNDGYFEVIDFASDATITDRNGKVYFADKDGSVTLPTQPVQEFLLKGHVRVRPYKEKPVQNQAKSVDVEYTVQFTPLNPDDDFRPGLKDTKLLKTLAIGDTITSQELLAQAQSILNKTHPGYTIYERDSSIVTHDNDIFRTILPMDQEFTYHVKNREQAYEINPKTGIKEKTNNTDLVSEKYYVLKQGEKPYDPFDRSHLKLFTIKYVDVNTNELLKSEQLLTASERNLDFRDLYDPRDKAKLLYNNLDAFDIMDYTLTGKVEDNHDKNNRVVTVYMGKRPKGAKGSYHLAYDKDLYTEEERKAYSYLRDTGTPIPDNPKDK

Coagulation factor XII = molecular target: T5, Coagulation factor XII (Homo sapiens, UniProt P00748); assay type: functional;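 note: activated factor XIIa alpha cleaving a fluorogenic AMC peptide substrate; inhibitor potency from loss of enzyme activity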
T5 sequence (P00748 whole entry): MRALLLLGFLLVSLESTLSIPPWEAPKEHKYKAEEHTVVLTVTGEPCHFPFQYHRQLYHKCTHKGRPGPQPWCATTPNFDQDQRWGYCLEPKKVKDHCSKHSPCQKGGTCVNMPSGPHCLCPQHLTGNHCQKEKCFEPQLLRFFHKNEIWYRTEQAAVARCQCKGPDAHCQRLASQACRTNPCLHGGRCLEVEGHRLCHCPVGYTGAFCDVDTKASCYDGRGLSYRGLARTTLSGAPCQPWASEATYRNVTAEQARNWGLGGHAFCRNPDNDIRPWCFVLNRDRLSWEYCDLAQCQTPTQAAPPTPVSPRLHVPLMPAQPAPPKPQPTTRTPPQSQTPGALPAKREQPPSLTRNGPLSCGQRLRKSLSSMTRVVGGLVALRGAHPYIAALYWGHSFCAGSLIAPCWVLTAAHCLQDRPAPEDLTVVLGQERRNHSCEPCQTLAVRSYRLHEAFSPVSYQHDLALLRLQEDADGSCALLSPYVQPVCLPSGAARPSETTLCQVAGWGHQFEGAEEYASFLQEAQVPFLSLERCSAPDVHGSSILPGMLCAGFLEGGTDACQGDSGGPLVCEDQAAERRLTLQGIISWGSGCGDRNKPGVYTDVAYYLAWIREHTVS

fMet-Leu-Phe receptor = molecular target: T6, fMet-Leu-Phe receptor (Homo sapiens, UniProt P21462); test: formyl peptide receptor binders – dose response (AID 519); assay type: functional
T6 sequence (P21462 whole entry): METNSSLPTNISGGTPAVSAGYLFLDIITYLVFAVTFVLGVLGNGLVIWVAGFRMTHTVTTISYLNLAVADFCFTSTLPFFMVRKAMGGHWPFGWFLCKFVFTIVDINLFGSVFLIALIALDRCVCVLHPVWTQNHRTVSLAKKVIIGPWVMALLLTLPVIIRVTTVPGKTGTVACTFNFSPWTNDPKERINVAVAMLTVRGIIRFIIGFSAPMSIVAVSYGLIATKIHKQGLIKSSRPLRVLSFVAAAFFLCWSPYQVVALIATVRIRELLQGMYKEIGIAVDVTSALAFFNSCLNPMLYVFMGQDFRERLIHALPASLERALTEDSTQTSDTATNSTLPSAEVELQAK

Cytochrome P450 1A2 = molecular target: T7, Cytochrome P450 1A2 (Homo sapiens, UniProt P05177);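 note: PubChem cytochrome P450 panel assay, CYP1A2 panel member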
T7 sequence (P05177 whole entry): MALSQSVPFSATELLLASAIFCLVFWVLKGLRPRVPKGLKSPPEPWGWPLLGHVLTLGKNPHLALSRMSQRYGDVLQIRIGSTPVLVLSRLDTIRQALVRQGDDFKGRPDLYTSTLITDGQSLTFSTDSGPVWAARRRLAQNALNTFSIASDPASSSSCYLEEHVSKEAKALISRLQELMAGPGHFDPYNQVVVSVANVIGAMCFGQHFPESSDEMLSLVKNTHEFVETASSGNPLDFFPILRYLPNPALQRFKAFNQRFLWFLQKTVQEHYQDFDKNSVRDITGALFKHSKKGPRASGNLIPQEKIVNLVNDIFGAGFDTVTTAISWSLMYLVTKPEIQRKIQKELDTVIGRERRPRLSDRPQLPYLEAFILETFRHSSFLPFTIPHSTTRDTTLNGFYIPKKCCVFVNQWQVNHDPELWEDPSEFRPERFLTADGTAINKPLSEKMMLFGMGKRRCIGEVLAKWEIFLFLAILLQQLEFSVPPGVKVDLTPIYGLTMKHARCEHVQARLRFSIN

[7] = molecular target: T8, Heat shock factor protein 1 (Mus musculus, UniProt P38532); test: decrease of HSF1-responsive luciferase luminescence – cell-based, NIH3T3, dose retest, confirmation (AID 2382); assay type: functional;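 note: NIH3T3 fibroblasts with HSF1-driven luciferase reporter stressed by proteasome inhibitor MG132; luminescence from HSF1-driven luciferase expression after 8 hours of MG132 stress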
T8 sequence (P38532 whole entry): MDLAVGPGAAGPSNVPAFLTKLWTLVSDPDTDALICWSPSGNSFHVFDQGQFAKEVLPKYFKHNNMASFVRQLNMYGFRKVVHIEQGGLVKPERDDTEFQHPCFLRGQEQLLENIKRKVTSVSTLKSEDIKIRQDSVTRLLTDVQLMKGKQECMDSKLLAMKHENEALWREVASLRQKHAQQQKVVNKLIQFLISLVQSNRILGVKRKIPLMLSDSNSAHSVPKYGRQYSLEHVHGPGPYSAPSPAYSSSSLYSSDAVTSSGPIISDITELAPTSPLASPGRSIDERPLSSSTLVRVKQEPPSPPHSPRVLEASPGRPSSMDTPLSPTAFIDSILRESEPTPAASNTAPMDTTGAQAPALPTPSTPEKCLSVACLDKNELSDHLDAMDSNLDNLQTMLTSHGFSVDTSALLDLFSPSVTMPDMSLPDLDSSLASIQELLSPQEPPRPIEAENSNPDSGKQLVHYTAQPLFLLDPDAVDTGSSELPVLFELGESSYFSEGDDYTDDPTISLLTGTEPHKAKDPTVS

SMILES: Cc1ccc(S(=O)(=O)Nc2cnc3ccccc3c2)cc1
- IC50 [1]: 44.9 µM (active)
- IC50 [2]: > 100 µM (not active)

SMILES: CC1CCN(CC2C(=O)O[C@@H]3C[C@@]4(C)CCC[C@H](C)C4=C[C@H]23)CC(C)(C)C1 (stereo not given in full)
- AC50 [3]: 16.1 µM (active)

SMILES: CCN(CC)CCNC(=O)c1c(C)n(-c2ccccc2)c2cc(Br)c(OC)cc12
- AC50 [3]: 12.9 µM (active)
- IC50 [4]: > 20 µM (inactive)

SMILES: O=C(Nc1ccc(N2CCCC2)c(S(=O)(=O)Nc2cccc(C(F)(F)F)c2)c1)c1cccs1
- IC50 [5]: > 69.5 µM (inactive)
- EC50 [6]: 3.38 µM (active)
- EC50 (Streptococcus): 10.5 µM (active)
- EC50 (Streptokinase A): > 150 µM (not active)

SMILES: COc1ccc(N(CC(=O)Nc2ccc3c(c2)OCCO3)S(=O)(=O)c2c(C)nn(C)c2C)cc1
- IC50 (Coagulation factor XII): > 50 µM (inactive)

SMILES: COc1ccc2c(c1OC)C(=O)N(c1nnc(SC)[nH]1)C2=O
- IC50 [1]: 34.1 µM (active)
- IC50 [2]: > 100 µM (not active)

SMILES: O=C(C1=C(O)C(=O)N(CCc2ccccc2)C1c1cccnc1)c1ccco1 (stereo not given)
- Ki (fMet-Leu-Phe receptor): > 66.7 µM (inactive)

SMILES: CC(=O)c1ccc(N2CCC(c3cc(-c4ccc(Cl)cc4Cl)n[nH]3)CC2)c([N+](=O)[O-])c1
- IC50 [5]: > 69.5 µM (inactive)
- AC50 (Cytochrome P450 1A2): 14.1 µM (inconclusive)
- EC50 (Streptokinase A): > 150 µM (not active)

SMILES: O=C(O)CC(Cc1ccc(Br)cc1)C(=O)O (stereo not given)
- EC50 [7]: > 195 µM (not active)
- IC50 (Coagulation factor XII): > 50 µM (inactive)

SMILES: CCN(CC)C(=O)c1cc(-c2cc(F)c(Cl)cc2Cl)n[nH]1
- IC50 [1]: 3.63 µM (active)
- IC50 [2]: > 10 µM (inconclusive)
